Experimental data as given in patent publication US9938262B2, “Benzamides” (Merck Patent GmbH, priority 2011, dated 2018).

Target: T1, FSHR (Homo sapiens, UniProt P23945)
T1 construct: expressed in transfected cells; host or cells: CHO (Cho-FSHR-LUC-1-1-43)
Test: EC50 of cyclic AMP production in CHO FSHR cells + EC20 FSH (Assay A)
Assay type: cell-based
Settings: Table 2; for EC50: CHO FSHR cells + EC20 FSH, read-out: Assay A EC50 of cyclic AMP production; for activation at 5 µM: 1 h, effect relative to maximum response of the FSH standard
Outline: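 cAMP HTRF ratio (665/620 nm) read after 1 h, 37 °C exposure of CHO-FSHR cells to compound in presence of EC20 FSH ([…]) and IBMX 200 μM. Responses given relative to FSH standard maximum; EC50 derived.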

T1 sequence (P23945 18-695): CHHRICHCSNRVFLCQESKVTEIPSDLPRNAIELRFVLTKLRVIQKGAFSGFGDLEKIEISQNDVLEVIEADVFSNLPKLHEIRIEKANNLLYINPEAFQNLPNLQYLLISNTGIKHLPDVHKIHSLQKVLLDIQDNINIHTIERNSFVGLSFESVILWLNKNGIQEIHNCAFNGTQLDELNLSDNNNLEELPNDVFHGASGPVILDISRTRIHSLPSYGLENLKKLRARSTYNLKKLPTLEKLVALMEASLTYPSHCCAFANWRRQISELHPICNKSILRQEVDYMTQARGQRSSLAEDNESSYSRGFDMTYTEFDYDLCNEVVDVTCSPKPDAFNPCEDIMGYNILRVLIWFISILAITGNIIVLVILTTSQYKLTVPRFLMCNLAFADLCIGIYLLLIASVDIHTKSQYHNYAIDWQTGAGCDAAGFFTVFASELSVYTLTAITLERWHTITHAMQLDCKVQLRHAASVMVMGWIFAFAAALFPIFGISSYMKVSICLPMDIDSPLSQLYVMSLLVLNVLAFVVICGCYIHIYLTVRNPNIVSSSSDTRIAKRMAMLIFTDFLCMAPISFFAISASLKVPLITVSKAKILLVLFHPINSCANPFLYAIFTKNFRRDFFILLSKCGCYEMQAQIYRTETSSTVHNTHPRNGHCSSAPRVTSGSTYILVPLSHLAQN
T1 sequence (P01215 25-116 partner): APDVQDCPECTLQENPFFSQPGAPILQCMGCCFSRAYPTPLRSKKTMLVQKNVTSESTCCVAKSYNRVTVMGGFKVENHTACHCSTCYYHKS
T1 sequence (P01225 19-129 partner): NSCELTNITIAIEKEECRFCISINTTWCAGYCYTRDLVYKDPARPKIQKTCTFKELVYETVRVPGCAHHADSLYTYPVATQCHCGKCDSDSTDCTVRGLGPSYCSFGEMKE

| SMILES | EC50 | activation at 5 µM |
| --- | --- | --- |
| Cn1ccnc1N1CCN(c2ccc(C(=O)NCCCN3CCCC3=O)cc2NC(=O)c2coc(C3CC3)n2)CC1 [Compound 483] | 1 to 10 µM | – |
| O=C(NCCCN1CCCC1=O)c1ccc(N2CCN(c3nccs3)CC2)c(NC(=O)c2coc(C3CC3)n2)c1 [Compound 505] | 1 to 10 µM | – |
| COc1cccc(N2CCN(c3ccc(C(=O)NCCCN4CCCC4=O)cc3NC(=O)c3coc(C4CC4)n3)CC2)n1 [Compound 507] | 0.1 to 1 µM | – |
| Cn1ccnc1N1CCN(c2ccc(C(=O)NCCCN3CCOC3=O)cc2NC(=O)c2coc(C3CC3)n2)CC1 [Compound 513] | 1 to 10 µM | – |
| Cc1ccc(C(=O)Nc2cc(C(=O)NCCCN3CCOC3=O)ccc2N2CCN(c3nccn3C)CC2)o1 [Compound 514] | – | 48% |
| Cc1ccccc1N1CCN(c2ccc(C(=O)NCCCC(=O)NCCO)cc2NC(=O)c2coc(C3CC3)n2)CC1 [Compound 515] | < 0.1 µM | – |
| CCc1ccccc1N1CCN(c2ccc(C(=O)NCCCN3CCCC3=O)cc2NC(=O)c2coc(C3CC3)n2)CC1 [Compound 516] | 0.1 to 1 µM | – |
| O=C(NCCCN1CCCC1=O)c1ccc(N2CCN(c3ccccc3C3CC3)CC2)c(NC(=O)c2coc(C3CC3)n2)c1 [Compound 524] | 0.1 to 1 µM | – |
| N#Cc1ccccc1N1CCN(c2ccc(C(=O)NCCCN3CCCC3=O)cc2NC(=O)c2coc(C3CC3)n2)CC1 [Compound 525] | 0.1 to 1 µM | – |
| COc1ccnc(N2CCN(c3ccc(C(=O)NCCCN4CCCC4=O)cc3NC(=O)c3coc(C4CC4)n3)CC2)c1 [Compound 530] | 1 to 10 µM | – |
| NC(=O)c1cccnc1N1CCN(c2ccc(C(=O)NCCCN3CCCC3=O)cc2NC(=O)c2coc(C3CC3)n2)CC1 [Compound 532] | > 10 µM | – |
| Cc1cncc(N2CCN(c3ccc(C(=O)NCCCN4CCCC4=O)cc3NC(=O)c3coc(C4CC4)n3)CC2)n1 [Compound 533] | 1 to 10 µM | – |
| Cc1ccccc1N1CCN(c2ccc(C(=O)NCC[C@H]3COC(C)(C)O3)cc2NC(=O)c2coc(C3CC3)n2)CC1 [Compound 535] | 0.1 to 1 µM | – |
| Cc1ccccc1C1(O)CCN(c2ccc(C(=O)NCCCN3CCCC3=O)cc2NC(=O)c2coc(C3CC3)n2)CC1 [Compound 539] | 1 to 10 µM | – |
| Cc1ccccc1N1CCN(c2ccc(C(=O)NCCCN3CCCC3=O)cc2NC(=O)C2CC2(F)F)CC1 (centres unmarked) [Compound 540] | 1 to 10 µM | – |
| Cc1ccccc1N1CCN(c2ccc(C(=O)NOC[C@H](O)CO)cc2NC(=O)c2coc(C3CC3)n2)CC1 [Compound 542] | 0.1 to 1 µM | – |
| Cc1ccccc1N1CCN(c2ccc(C(=O)NCCc3cn(C)cn3)cc2N(C(=O)C(F)(F)F)C(=O)C(F)(F)F)CC1 [Compound 548] | 1 to 10 µM | – |
| Cc1ccccc1N1CCN(c2ccc(C(=O)NC[C@@H]3OC(C)(C)O[C@H]3CN)cc2NC(=O)c2coc(C3CC3)n2)CC1 [Compound 549] | 0.1 to 1 µM | – |
| Cc1ccccc1N1CCN(c2ccc(C(=O)N[C@@H]3C[C@H](CO)[C@@H](O)[C@H]3O)cc2NC(=O)c2coc(C3CC3)n2)CC1 [Compound 551] | < 0.1 µM | – |
| Cc1ccccc1N1CCN(c2ccc(C(=O)NC3CCCC(O)C3)cc2NC(=O)c2coc(C3CC3)n2)CC1 (centres unmarked) [Compound 552] | < 0.1 µM | – |
| O=C(NCCCN1CCCC1=O)c1ccc(N2CCN(c3cccc4[nH]ccc34)CC2)c(NC(=O)c2coc(C3CC3)n2)c1 [Compound 553] | 0.1 to 1 µM | – |
| O=C(NCCCN1CCCC1=O)c1ccc(N2CCN(c3ncncn3)CC2)c(NC(=O)c2coc(C3CC3)n2)c1 [Compound 554] | – | 40% |
| O=C(NCCCN1CCCC1=O)c1ccc(N2CCN(c3cccnc3)CC2)c(NC(=O)c2coc(C3CC3)n2)c1 [Compound 555] | 1 to 10 µM | – |
| Cc1ccccc1N1CCN(c2ccc(C(=O)NC[C@H](O)[C@@H](O)CN)cc2NC(=O)c2coc(C3CC3)n2)CC1 [Compound 561] | 1 to 10 µM | – |
| COC(C(=O)Nc1cc(C(=O)NCCCN2CCCC2=O)ccc1N1CCN(c2ccccc2C)CC1)c1ccccc1 (centres unmarked) [Compound 562] | 0.1 to 1 µM | – |
| Cc1ccccc1N1CCN(c2ccc(C(=O)NC[C@H](O)CO)cc2NC(=O)c2coc(C3CC3)n2)CC1 [Compound 565] | 0.1 to 1 µM | – |

Next, values leading:

| EC50 | activation at 5 µM | SMILES |
| --- | --- | --- |
| 1 to 10 µM | – | Cc1ccccc1N1CCN(c2ccc(C(=O)Nc3cccc(N4CCCC4=O)c3)cc2NC(=O)c2ccco2)CC1 [Compound 482] |
| 0.1 to 1 µM | – | COCc1cccc(CNC(=O)c2ccc(N3CCN(c4ccccc4C)CC3)c(NC(=O)c3ccco3)c2)c1 [Compound 484] |
| 0.1 to 1 µM | – | Cc1ccccc1N1CCN(c2ccc(C(=O)NCc3cccc(C(=O)N(C)C)c3)cc2NC(=O)c2ccco2)CC1 [Compound 485] |
| 1 to 10 µM | – | Cc1ccccc1N1CCN(c2ccc(C(=O)NC(C)(C)c3cccc(CN(C)C)c3)cc2NC(=O)c2coc(C3CC3)n2)CC1 [Compound 486] |
| 1 to 10 µM | – | Cc1ccccc1N1CCN(c2ccc(C(=O)NC(C)(C)c3cccc(CN(C)C)c3)cc2NC(=O)c2ccco2)CC1 [Compound 487] |
| 1 to 10 µM | – | Cc1ccccc1N1CCN(c2ccc(C(=O)NCCc3ccc(CNC(=O)OC(C)(C)C)cc3)cc2NC(=O)c2coc(C3CC3)n2)CC1 [Compound 489] |
| < 0.1 µM | – | CCCNC(=O)NCCCNC(=O)c1ccc(N2CCN(c3ccccc3C)CC2)c(NC(=O)c2ccco2)c1 [Compound 490] |
| 0.1 to 1 µM | – | CCCCNC(=O)NCCCNC(=O)c1ccc(N2CCN(c3ccccc3C)CC2)c(NC(=O)c2ccco2)c1 [Compound 491] |
| 0.1 to 1 µM | – | CCNC(=O)NCCCNC(=O)c1ccc(N2CCN(c3ccccc3C)CC2)c(NC(=O)c2ccco2)c1 [Compound 492] |
| 0.1 to 1 µM | – | Cc1ccccc1N1CCN(c2ccc(C(=O)NCCCNC(=O)NC(C)(C)C)cc2NC(=O)c2ccco2)CC1 [Compound 493] |
| 0.1 to 1 µM | – | Cc1ccccc1N1CCN(c2ccc(C(=O)NCCCNC(=O)NC3CCCC3)cc2NC(=O)c2ccco2)CC1 [Compound 494] |
| 0.1 to 1 µM | – | Cc1ccccc1N1CCN(c2ccc(C(=O)NCCCNC(=O)NC(C)C)cc2NC(=O)c2ccco2)CC1 [Compound 495] |
| 0.1 to 1 µM | – | Cc1ccccc1N1CCN(c2ccc(C(=O)NCCCNC(=O)NC3CCCCC3)cc2NC(=O)c2ccco2)CC1 [Compound 496] |
| 1 to 10 µM | – | Cc1ccccc1N1CCN(c2ccc(C(=O)NCCCNC(=O)NCC3CCCCC3)cc2NC(=O)c2ccco2)CC1 [Compound 497] |
| 0.1 to 1 µM | – | Cc1ccccc1N1CCN(c2ccc(C(=O)NCCc3ccc(CN)cc3)cc2NC(=O)c2coc(C3CC3)n2)CC1 [Compound 499] |
| 0.1 to 1 µM | – | Cc1nc(CCCNC(=O)c2ccc(N3CCN(c4ccccc4C)CC3)c(NC(=O)c3coc(C4CC4)n3)c2)no1 [Compound 500] |
| 0.1 to 1 µM | – | Cc1ccccc1N1CCN(c2ccc(C(=O)NCC(O)CN3CCCC3)cc2NC(=O)c2ccco2)CC1 (centres unmarked) [Compound 501] |
| 0.1 to 1 µM | – | Cc1ccccc1N1CCN(c2ccc(C(=O)NCCN(C)C3CCCC3)cc2NC(=O)c2ccco2)CC1 [Compound 502] |
| 0.1 to 1 µM | – | Cc1ccccc1N1CCN(c2ccc(C(=O)NCCCN3CCCC3C(N)=O)cc2NC(=O)c2ccco2)CC1 (centres unmarked) [Compound 503] |
| 0.1 to 1 µM | – | Cc1ccccc1N1CCN(c2ccc(C(=O)NCCN(C)C3CCS(=O)(=O)C3)cc2NC(=O)c2ccco2)CC1 (centres unmarked) [Compound 504] |

| EC50 | activation at 5 µM | SMILES |
| --- | --- | --- |
| 0.1 to 1 µM | – | CCC(C)NC(=O)NCCCNC(=O)c1ccc(N2CCN(c3ccccc3C)CC2)c(NC(=O)c2ccco2)c1 (centres unmarked) [Compound 511] |
| < 0.1 µM | – | C=CCNC(=O)NCCCNC(=O)c1ccc(N2CCN(c3ccccc3C)CC2)c(NC(=O)c2ccco2)c1 [Compound 512] |
| 0.1 to 1 µM | – | CCc1ccccc1N1CCN(c2ccc(C(=O)NCCCN3CCCC3=O)cc2NC(=O)c2ccc(C)o2)CC1 [Compound 517] |
| 0.1 to 1 µM | – | Cc1ccc(C)c(N2CCN(c3ccc(C(=O)NCCCN4CCCC4=O)cc3NC(=O)c3ccc(C)o3)CC2)c1 [Compound 519] |
| 0.1 to 1 µM | – | Cc1ccc(C(=O)Nc2cc(C(=O)NCCCN3CCCC3=O)ccc2N2CCN(c3cccc(C)c3C)CC2)o1 [Compound 521] |
| 1 to 10 µM | – | Cc1ccc(C(=O)Nc2cc(C(=O)NCCCN3CCCC3=O)ccc2N2CCN(c3ccccc3C#N)CC2)o1 [Compound 522] |
| 0.1 to 1 µM | – | Cc1ccccc1N1CCN(c2ccc(C(=O)NCc3cccc(C(F)(F)F)c3)cc2NC(=O)c2ccco2)CC1 [Compound 527] |
| 1 to 10 µM | – | Cc1ccccc1N1CCN(c2ccc(C(=O)NCc3cccc(C(F)(F)F)c3)cc2NC(=O)c2coc(C3CC3)n2)CC1 [Compound 528] |
| 0.1 to 1 µM | – | CCN(CC)Cc1cccc(CNC(=O)c2ccc(N3CCN(c4ccccc4C)CC3)c(NC(=O)c3coc(C4CC4)n3)c2)c1 [Compound 536] |
| 0.1 to 1 µM | – | CCN(C)Cc1cccc(CNC(=O)c2ccc(N3CCN(c4ccccc4C)CC3)c(NC(=O)c3coc(C4CC4)n3)c2)c1 [Compound 537] |
| 0.1 to 1 µM | – | Cc1ccccc1N1CCN(c2ccc(C(=O)NCc3cccc(CN4CCCC4)c3)cc2NC(=O)c2coc(C3CC3)n2)CC1 [Compound 538] |
| 1 to 10 µM | – | CCN(CC)Cc1cccc(CNC(=O)c2ccc(N3CCN(c4ccccc4C)CC3)c(NC(=O)c3ccc(C)o3)c2)c1 [Compound 543] |
| 1 to 10 µM | – | Cc1ccc(C(=O)Nc2cc(C(=O)NCc3cccc(CN(C)C)c3)ccc2N2CCN(c3ccccc3C)CC2)o1 [Compound 544] |
| 1 to 10 µM | – | Cc1ccc(C(=O)Nc2cc(C(=O)NC(C)(C)c3cccc(CN(C)C)c3)ccc2N2CCN(c3ccccc3C)CC2)o1 [Compound 545] |
| 1 to 10 µM | – | Cc1ccc(C(=O)Nc2cc(C(=O)NCc3cccc(CN4CCCC4)c3)ccc2N2CCN(c3ccccc3C)CC2)o1 [Compound 546] |
| 1 to 10 µM | – | CCN(C)Cc1cccc(CNC(=O)c2ccc(N3CCN(c4ccccc4C)CC3)c(NC(=O)c3ccc(C)o3)c2)c1 [Compound 547] |
| > 10 µM | – | Cc1ccccc1N1CCN(c2ccc(C(=O)NCc3cccc(CN(C)C)c3)cc2NS(C)(=O)=O)CC1 [Compound 563] |
| 0.1 to 1 µM | – | Cc1ccccc1N1CCN(c2ccc(C(=O)NCc3ccc(F)c(CN(C)C)c3)cc2NC(=O)c2coc(C3CC3)n2)CC1 [Compound 564] |
| 0.1 to 1 µM | – | Cc1ccccc1N1CCN(c2ccc(C(=O)NC[C@H](O)c3ccccc3)cc2NC(=O)c2coc(C3CC3)n2)CC1 [Compound 566] |
